PMC6222558, “Synthesis and Evolution of Berberine Derivatives as a New Class of Antiviral Agents against Enterovirus 71 through the MEK/ERK Pathway and Autophagy” (Molecules : A Journal of Synthetic Chemistry and Natural …, 2018)

How the values were obtained:
[1] = tested on: EV71 H strain (VR-1432, genotype C2); test: CPE inhibition assay for anti-EV71, H strain; type: cell-based, enterovirus 71 (EV71); conditions: Enterovirus A, EV71; Vero cells; CPE; calculated on the organic part; n = 3; read-out: H Strain IC50
Outline: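 Vero cells infected with 100 × TCID50 EV71 for 1 h at 37 °C in serum-free medium, unbound virus removed, then compounds added for 72 h. IC50 from inhibition of virus-induced CPE; TC50 as concentration giving 50% CPE at 72 h, with selectivity index; crystal violet staining for imaging.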

EV71-induced CPE = test: CPE assay with microscopy and crystal violet staining; type: cell-based, enterovirus 71 (EV71); conditions: 20 μM; Vero cells; better than that of BBR
Method: Furthermore, microscopy and crystal violet staining was used to further investigation the anti-EV71 effect of 2d with CPE (cytopathic effect) assay.
(§1) The anti-EV71 activities of all tested compounds were detected by the virus-induced CPE assay. Briefly, cells (3 × 10^4 cells/well) were plated into 96-well culture plates and incubated for 16 h. Then, remove the medium and infected cells with EV71 of 100 × TCID50 (50% tissue culture infective doses) in serum-free medium for 1 h at 37 °C. After that, the unbound viruses were removed and various concentrations of tested compounds were supplemented for incubation of another 72 h. […] TC50 defined as the concentration that leads to the 50% of CPE which determined by the same method in 72 h. In addition, the cells were stained the cells were colored with 0.5% crystal violet in 20% ethanol for 15 min at room temperature and the cells were imaged after rinsed with PBS.
Figure 2 The anti-EV71 effect of compound 2d in Vero cells with BBR as a positive control. (A) 2d reduced the EV71-induced CPE. Cells were examined using a microscopy (×40); (B) 2d reduced the EV71-induced CPE. Cells were examined using crystal violet staining; (C) 2d reduced the expression of EV71 VP1 RNA by one-step qRT-PCR assay. ** p < 0.001 * p < 0.05; (D) 2d reduced the expression of EV71 VP1 protein by western blot assay.

[2] = tested on: EV71-induced autophagy (AKT, JNK, PI3KIII, LC3II, Beclin-1); test: Western blot of autophagy proteins in EV71-infected Vero cells; type: cell-based, African green monkey; conditions: EV71 H, MOI = 0.1; 24 h treatment
Source text: EV71 infection triggers autophagy, which provides a support for EV71 replication. Both JNK and PI3KIII proteins as upstream activators, play important roles in regulating autophagy, and inhibition of corresponding signaling pathway could down-regulate autophagy. Otherwise, AKT, as an inhibitor of autophagy factor, could inhibit autophagy with its activation. To further understand whether 2d still affected autophagy after structure modification, the inhibition of activation AKT and phosphorylation of JNK and PI3KIII proteins were also carried out using BBR as a reference.
(§2) Cells were lysed in the M-PER mammalian protein extraction reagent (Thermo, Rockford, IL, USA) containing halt protease inhibitor single-use cocktail (Thermo). The protein concentration was determined by BCA Protein Assay Kit (Thermo). Equal amount of samples (15 μg proteins) were denatured and applied to sodium dodecyl sulfate-polyacrylamide gel electrophoresis (SDS-PAGE), and then electrophoresis products were transferred to a polyvinylidenefluoride (PVDF) film and blocked by 5% (w/v) milk or BSA at room temperature. An hour later, PVDF membranes were incubated at room temperature with specific primary antibody. After a standard washing, membranes were incubated with horse radish peroxidase (HRP)-labeled secondary antibody. The signals were detected using ECL detection kit (GE Healthcare Life Sciences, Pittsburgh, PA, USA). The primary antibodies used in the experiment included β-actin, p-p44/p42 MAPK, p44/p42 MAPK, p-MEK, MEK, p-JNK, JNK, p-AKT, AKT, PI3KIII, LC3B, Beclin-1 (Cell Signaling Technology, Danvers, MA, USA), and EV71-VP1 (Abnova, Taibei, China). HRP-labeled secondary antibodies included goat anti-rabbit and anti-mouse HRP-labeled antibodies (Cell Signaling Technology).
Figure 4 Compound 2d inhibits EV71-induced autophagy. Vero cells were mock-infected or infected with EV71 (H, MOI = 0.1) for 1 h. The cells were then treated with compound 2d and BBR for 24 h. The cells were harvested and proteins were examined by western blot.

[3] = tested on: four different genotype enterovirus 71 (EV71) strains; test: CPE assay, summary over the four EV71 strains; type: cell-based; conditions: Enterovirus A, EV71, read-out: IC50 values against all tested EV71 strains
Method: Thus, all newly synthesized BBR analogues were screened for their anti-EV71 potencies in African green monkey kidney (Vero) cells taking BBR as the positive control. EV71 strains used in the present study include different genotype strains, such as H strain (VR-1432, genotype C2), BrCr strain (VR-1775, genotype A), and JS-52 and SHZH98 (genotype C4). The potency against EV71 strains above mentioned of each tested compound was evaluated by the combination of its IC50 and selectivity index (SI) value as the important therapeutic indication.
as §1

EV71 VP1 protein = EV71 VP1 protein by western blot in infected Vero cells; type: cell-based, enterovirus 71 (EV71); conditions: Vero cells infected with H strain; better than BBR at 40 μM
Method: To further confirm the anti-EV71 activity, the VP1 down-regulatory activity of 2d was examined in Vero cells infected with H strain of EV71, in comparison with that of BBR. […] Accordingly, VP1 capsid protein expression was also analyzed to examine its effect on EV71 biological synthesis.
as §2, with “HRP-labeled secondary antibodies included goat anti-rabbit and anti-mouse HRP-labeled antibodies (Cell Signaling Technology).” left out

Vero cells = test: Cytotoxicity assay (CCK) in Vero cells; type: cell-based, African green monkey
Outline: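 Vero cells seeded at 3 × 10^4 cells/well were exposed overnight-plated to a range of compound concentrations in duplicate for 48 h. Viability was measured by CCK at 450 nm. TC50 is the concentration giving 50% growth inhibition versus controls, calculated by the Reed and Muench method.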

With `COc1ccc2cc3[n+](cc2c1OCC(=O)OCc1ccccc1)CCc1cc2c(cc1-3)OCO2` [2d, 2,3-Methylenedioxy-9-benzyloxyformylmethylenoxy-10-methoxyprotoberberine chloride] the IC50 [1] was 12.4 µM, the “reduction of EV71-induced CPE” value (EV71-induced CPE) was “significantly reduce the EV71-induced CPE” and the AKT activation [2] was “activate AKT”. The “LC3II (marker for autophagy)” value [2] was “decreased”, the “expression of Beclin-1” value [2] was “could not affect the expression of Beclin-1” and the “phosphorylation of JNK and PI3KIII proteins” value [2] was “inhibit the phosphorylation of JNK and PI3KIII proteins”. For the same compound, the IC50 [3] was 7.12 to 14.8 µM, the VP1 protein expression (EV71 VP1 protein) was “obviously down-regulate the expression of VP1 protein in a dose-dependent manner” and the “cytotoxicity, in words” value (Vero cells) was “lower cytotoxicity”. The “TC50 (median toxic concentration)” value (Vero cells; African green monkey, 48 h) was 82.8 µM.
